Experimental findings from ChEMBL document CHEMBL1201862, “PubChem BioAssay data set” (2004) are described below.

The target in experiment [1] is T1, Microphthalmia-associated transcription factor (Homo sapiens, UniProt O75030).
T1 sequence (O75030 whole entry): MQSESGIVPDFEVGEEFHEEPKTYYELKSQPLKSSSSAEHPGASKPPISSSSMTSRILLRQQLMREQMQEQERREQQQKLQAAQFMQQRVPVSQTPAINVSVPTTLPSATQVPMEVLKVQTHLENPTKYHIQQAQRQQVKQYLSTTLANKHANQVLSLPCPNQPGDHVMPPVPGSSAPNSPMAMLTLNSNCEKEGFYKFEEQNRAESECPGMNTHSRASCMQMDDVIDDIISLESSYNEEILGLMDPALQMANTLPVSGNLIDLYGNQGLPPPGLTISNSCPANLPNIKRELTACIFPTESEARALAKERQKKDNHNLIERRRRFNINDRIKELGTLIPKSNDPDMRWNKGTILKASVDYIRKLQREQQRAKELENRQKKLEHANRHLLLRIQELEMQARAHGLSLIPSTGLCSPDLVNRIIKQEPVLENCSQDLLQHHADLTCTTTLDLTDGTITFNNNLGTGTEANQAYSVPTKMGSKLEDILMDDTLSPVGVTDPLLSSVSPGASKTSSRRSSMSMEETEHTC
Briefly: reducers of TRPM1 reporter luminescence, concentration series – cell-based, SK-MEL-5, cherry-picked, set 3, MITF inhibitor project, dose response (AID 493073).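 Also: SK-MEL-5 melanoma cells with luciferase driven by the MITF target TRPM1 promoter.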 The experiment is classed as functional.

Experiment [2] in a line: viability inhibitors of stage V gametocytes – luminescence, dose response (AID 1117278).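 Also: gametocytes exposed to compound for 24 hours.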 The format is functional, cell-based.
The test system of the next experiment is INS1. Put plainly: INS-1E survival protection against cytokine death – cell-based, luminescence, retest, dose response (AID 449756).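 Also: cell death triggered by IL-1 beta plus TNF-alpha plus IFN-gamma mixture; protective hits raise ATP signal compared with cytokine alone wells.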 The format is functional. The note with it: Rattus norvegicus.
In the next experiment the target is Protein Wnt-3a (Mus musculus, UniProt P27467). Briefly: antagonism of Wnt3a pathway luciferase reporter – Wnt-LIGHT cells, luminescence, selectivity assay for Gli-SUFU antagonist project, dose response (AID 651570).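 Also: Wnt-LIGHT reporter cells stimulated with conditioned medium from Wnt3a-producing cells.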 The experiment is classed as functional. The note with it: read-out: IC50_Mean.
Protein Wnt-3a, sequence (P27467 whole entry): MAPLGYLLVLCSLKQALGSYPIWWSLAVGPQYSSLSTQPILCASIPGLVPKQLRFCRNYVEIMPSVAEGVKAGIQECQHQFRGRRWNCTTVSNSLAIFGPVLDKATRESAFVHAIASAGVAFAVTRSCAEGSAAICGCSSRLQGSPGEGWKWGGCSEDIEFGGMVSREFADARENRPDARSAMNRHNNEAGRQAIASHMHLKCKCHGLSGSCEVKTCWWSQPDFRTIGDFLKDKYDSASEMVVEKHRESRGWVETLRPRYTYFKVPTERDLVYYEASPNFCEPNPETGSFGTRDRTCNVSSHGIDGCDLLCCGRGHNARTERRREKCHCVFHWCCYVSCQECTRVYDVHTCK
Experiment [3] can be described thus: viability loss in human Jurkat cells – cell-based, luminescence, cytotoxicity control for P. falciparum gametocyte viability project, dose response (AID 1117277).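 Also: potency reflects loss of cellular ATP meaning fewer viable cells.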 The experiment is classed as functional.
A short description of experiment [4]: concentration-dependent intrinsic compound fluorescence, S. cerevisiae AD/pABC3, flow cytometry, Cherry Pick1 hits, artefact control for antifungal efflux pump inhibitor project, dose response (AID 588620). The format is functional. Background: A flow cytometer gives signals particle by particle.
Experiment [5] has as its target T2, Sentrin-specific protease 8 (Homo sapiens, UniProt Q96LD8).
T2 sequence (Q96LD8 whole entry): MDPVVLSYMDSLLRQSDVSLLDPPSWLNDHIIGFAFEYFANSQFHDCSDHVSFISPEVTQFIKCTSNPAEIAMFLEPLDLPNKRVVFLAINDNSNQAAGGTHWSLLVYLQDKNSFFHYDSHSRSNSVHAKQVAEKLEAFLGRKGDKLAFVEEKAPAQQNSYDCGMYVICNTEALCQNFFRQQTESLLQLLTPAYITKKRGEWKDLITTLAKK
Put plainly: inhibition of sentrin protease 8 – biochemical, luminescence, set 2, SAR follow-up (AID 588601). The format is functional.

The target of experiment [6] is T3, Sentrin-specific protease 7 (Homo sapiens, UniProt Q9BQF6).
T3 sequence (Q9BQF6 whole entry): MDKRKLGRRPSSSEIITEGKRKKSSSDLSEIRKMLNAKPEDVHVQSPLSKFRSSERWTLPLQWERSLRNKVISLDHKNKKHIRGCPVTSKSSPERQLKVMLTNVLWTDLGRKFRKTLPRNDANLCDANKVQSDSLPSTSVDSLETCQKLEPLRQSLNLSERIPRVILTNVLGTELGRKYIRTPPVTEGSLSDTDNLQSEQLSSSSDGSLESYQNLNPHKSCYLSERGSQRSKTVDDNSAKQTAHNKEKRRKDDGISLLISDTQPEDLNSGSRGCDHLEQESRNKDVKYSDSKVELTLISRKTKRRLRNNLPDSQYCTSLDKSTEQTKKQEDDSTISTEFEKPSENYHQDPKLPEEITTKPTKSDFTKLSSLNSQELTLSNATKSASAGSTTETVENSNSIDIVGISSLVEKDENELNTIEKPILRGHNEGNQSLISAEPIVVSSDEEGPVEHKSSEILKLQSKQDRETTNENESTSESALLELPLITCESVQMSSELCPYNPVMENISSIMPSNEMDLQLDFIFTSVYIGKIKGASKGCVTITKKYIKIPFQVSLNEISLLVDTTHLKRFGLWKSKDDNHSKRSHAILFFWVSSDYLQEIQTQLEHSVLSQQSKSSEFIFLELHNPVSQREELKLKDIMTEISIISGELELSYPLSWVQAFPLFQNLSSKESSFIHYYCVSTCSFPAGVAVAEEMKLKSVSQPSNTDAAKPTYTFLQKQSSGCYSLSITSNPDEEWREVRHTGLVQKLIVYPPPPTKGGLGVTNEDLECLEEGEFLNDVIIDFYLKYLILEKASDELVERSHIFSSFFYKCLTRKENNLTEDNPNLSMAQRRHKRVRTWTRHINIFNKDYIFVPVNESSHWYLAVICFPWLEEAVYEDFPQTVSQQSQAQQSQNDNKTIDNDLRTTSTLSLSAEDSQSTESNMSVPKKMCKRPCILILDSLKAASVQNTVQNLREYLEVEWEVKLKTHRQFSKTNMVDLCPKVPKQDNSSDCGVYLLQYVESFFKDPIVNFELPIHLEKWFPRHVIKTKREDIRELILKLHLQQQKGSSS
Put plainly: inhibition of human SENP7 cleavage activity – biochemical, luminescence, set 2, SAR follow-up (AID 588600). The experiment is classed as functional.

Experiment [7] addresses T4, Sentrin-specific protease 6 (Homo sapiens, UniProt Q9GZR1).
T4 sequence (Q9GZR1 whole entry): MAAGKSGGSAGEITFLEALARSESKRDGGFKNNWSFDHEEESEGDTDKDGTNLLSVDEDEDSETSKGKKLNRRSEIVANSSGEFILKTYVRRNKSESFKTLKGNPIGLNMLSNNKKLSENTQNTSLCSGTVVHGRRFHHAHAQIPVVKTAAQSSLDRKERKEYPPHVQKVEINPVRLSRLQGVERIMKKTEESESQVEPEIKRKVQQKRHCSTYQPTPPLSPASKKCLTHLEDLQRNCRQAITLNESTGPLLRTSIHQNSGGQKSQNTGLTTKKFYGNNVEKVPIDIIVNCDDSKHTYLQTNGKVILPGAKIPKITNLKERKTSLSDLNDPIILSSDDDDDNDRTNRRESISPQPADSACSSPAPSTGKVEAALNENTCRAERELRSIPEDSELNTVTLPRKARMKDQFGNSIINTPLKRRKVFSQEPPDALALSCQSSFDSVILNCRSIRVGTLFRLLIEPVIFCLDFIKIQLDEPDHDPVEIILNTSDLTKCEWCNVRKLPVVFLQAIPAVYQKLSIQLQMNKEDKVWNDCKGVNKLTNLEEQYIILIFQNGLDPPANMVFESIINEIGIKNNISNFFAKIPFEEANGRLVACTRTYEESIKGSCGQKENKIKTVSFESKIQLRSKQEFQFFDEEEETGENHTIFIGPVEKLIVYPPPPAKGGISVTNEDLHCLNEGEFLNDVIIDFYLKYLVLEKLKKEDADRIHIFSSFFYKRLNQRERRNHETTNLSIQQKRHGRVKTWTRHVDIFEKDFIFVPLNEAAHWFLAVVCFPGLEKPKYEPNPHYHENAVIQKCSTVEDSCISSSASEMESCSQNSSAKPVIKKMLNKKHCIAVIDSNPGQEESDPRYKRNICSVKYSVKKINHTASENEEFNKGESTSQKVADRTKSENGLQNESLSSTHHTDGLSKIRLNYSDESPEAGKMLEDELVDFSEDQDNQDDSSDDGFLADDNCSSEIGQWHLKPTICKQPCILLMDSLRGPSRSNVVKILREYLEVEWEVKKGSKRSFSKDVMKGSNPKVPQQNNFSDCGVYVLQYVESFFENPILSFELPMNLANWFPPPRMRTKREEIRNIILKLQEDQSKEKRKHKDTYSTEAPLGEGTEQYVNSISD
Put plainly: inhibition of human SENP6 catalytic domain – biochemical, luminescence, set 2, SAR follow-up (AID 588598). The experiment is classed as functional.

Another experiment has as its target T5, Caspase-3 (Homo sapiens, UniProt P42574).
T5 sequence (P42574 whole entry): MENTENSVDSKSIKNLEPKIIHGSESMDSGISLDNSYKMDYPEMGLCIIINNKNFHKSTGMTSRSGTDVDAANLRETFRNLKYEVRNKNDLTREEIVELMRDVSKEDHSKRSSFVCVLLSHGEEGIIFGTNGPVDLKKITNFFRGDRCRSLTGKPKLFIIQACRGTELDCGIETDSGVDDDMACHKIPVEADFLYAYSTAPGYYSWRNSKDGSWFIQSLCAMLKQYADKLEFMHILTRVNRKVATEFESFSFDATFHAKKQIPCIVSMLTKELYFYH
Put plainly: inhibition of recombinant caspase-3 activity – biochemical, luminescence, set 2, selectivity assay for SENP protease inhibitor project, SAR follow-up (AID 588599). The experiment is classed as functional.

The subject of a further experiment is Candida albicans. Briefly: Candida growth effect without fluconazole – C. albicans CaCi-2, dry powder, counter-screen for antifungal drug resistance project, dose response (AID 488802). The format is functional, organism-based.

Active and inactive are the calls of the source.

For `Cc1ccc(-c2c[n+](Cc3ccc(Cl)c(Cl)c3)c3n2CCC3)cc1`, the AC50 in [1] is 3.74 µM (active); with INS1, 3.4 µM (active). The IC50 in [2] is > 109 µM (inactive); at Protein Wnt-3a it was 24.5 µM (inactive); in experiment [3] it was 43.6 µM (inactive). Also, the concentration giving a half-maximal response (EC50) in experiment [4] is 43.6 µM (active).

Regarding `O=C(Nc1nc2ccc(SC(F)F)cc2s1)c1cn(-c2ccccc2)nc1-c1ccc(Cl)cc1`, the IC50 (in experiment [5]; in experiment [6]; in experiment [7]; at Caspase-3) was > 99 µM (inactive) throughout.

Take `Cc1nn(S(C)(=O)=O)c2ccccc12`: the AC50 in the experiment with Candida albicans is 46.7 µM (active).

A word on the AC50: it is the concentration giving half of the maximal activity seen. As a reminder, the EC50 is the concentration giving half of the maximal effect.
